Results from publication PMC5458078, “Global mapping of CARM1 substrates defines enzyme specificity and substrate recognition” (Nature Communications, 2017).

Columns and labels:
[1] = system: MCF7 CARM1 KO cells; assay: Quantitative MS of ADMA-containing peptides in MCF7 CARM1 KO cells expressing CARM1 28-608 or CARM1 140-608, and in CARM1 KO; assay type: cell-based, human
[2] = system: MCF7 cells; assay: Quantitative nanoLC-MS/MS (TMT) of ADMA-containing peptides, CARM1 KO vs parental; assay type: cell-based, human; set-up: Fold change KO/WT: scale not given here
[3] = mean, CARM1 140-608 versus WT (log2 scale)
[4] = mean, CARM1 KO versus WT (log2 scale)
[5] = MCF7 CARM1 knockout vs wild type, 3 biological replicates each, values are on log2 scale
[6] = CARM1 140-608 vs WT, mean of 3 replicates, log2
[7] = KO vs WT, mean of 3 replicates, log2
[8] = MCF7, CARM1 KO vs WT, three biological replicates each
[9] = log2 scale ratio, mean of n = 3
[10] = ADMA-containing peptide, MCF7, CARM1 knockout (KO1-3) vs wild type (WT1-3), TMT 6-plex experiment #1
[11] = CARM1 140-608 versus WT, difference of mean log2 values
[12] = CARM1 KO versus WT, difference of mean log2 values
[13] = difference of log2 means, CARM1 140-608 vs WT
[14] = difference of log2 means, KO vs WT
[15] = ADMA-containing peptide, CARM1 knockout (KO) vs wild type (WT) MCF7 cells, 6-plex TMT experiment #1, three biological replicates each, sheet "MCF7"
[16] = MCF7, CARM1 KO (KO1-KO3) vs wild type (WT1-WT3)
[17] = CARM1 KO vs wild type MCF7 cells, 3 biological replicates each
[18] = CARM1 140-608 vs WT, mean of 3 replicates (log2 scale)
[19] = KO vs WT, mean of 3 replicates (log2 scale)
[20] = ratio on log2 scale, mean of 3 replicates
[21] = MCF7, CARM1 knockout vs wild type, n = 3 each

QTGSPGMIYSTrYGSPK
CARM1 140-608/WT [1, 3]: -2.435
KO/WT [1, 4]: -3.403
Fold change KO/WT [2, 5]: -3.282

QVHPFHVYPQPGMQrFR
CARM1 140-608/WT [1, 6]: -0.2745
KO/WT [1, 7]: -0.1867
Fold change KO/WT [2, 8]: -0.1867

QrGVSHAMGGrGGINR
CARM1 140-608/WT [1, 9]: 0.2049
KO/WT [1, 9]: 0.2554
Fold change KO/WT [2, 10]: 0.102

QrGVSHAMGGrGGINrGNIN
CARM1 140-608/WT [1, 11]: -0.01925
KO/WT [1, 12]: 0.2719
Fold change KO/WT [2, 10]: 0.1671

QrLPFSAPPGSVVEASSNLR
CARM1 140-608/WT [1, 13]: -0.4663
KO/WT [1, 14]: -1.419
Fold change KO/WT [2, 5]: -1.459

RAPAGGSLGrALMR
CARM1 140-608/WT [1, 13]: 0.2074
KO/WT [1, 14]: 0.5402
Fold change KO/WT [2, 15]: 0.1845

RAPVPVrGGPK
CARM1 140-608/WT [1, 3]: 0.3236
KO/WT [1, 4]: 1.039
Fold change KO/WT [2, 5]: 0.8174

RGPLSQNGSFGPSPVSGGECSPPLTVEPPVrPLSATLNR
CARM1 140-608/WT [1, 13]: -1.692
KO/WT [1, 14]: -2.59
Fold change KO/WT [2, 15]: -2.59

RGPPPPPPGrGGrGGSR
CARM1 140-608/WT [1, 3]: 0.09749
KO/WT [1, 4]: 0.3155
Fold change KO/WT [2, 5]: 0.3155

RPAQSVNrGGMTR
CARM1 140-608/WT [1, 6]: 0.0581
KO/WT [1, 7]: 0.3659
Fold change KO/WT [2, 8]: 0.2083

RPEFMrGGGSGGGR
CARM1 140-608/WT [1, 9]: 0.07419
KO/WT [1, 9]: 0.64
Fold change KO/WT [2, 10]: 0.64

RPPPEHFrRPPPEHFR
CARM1 140-608/WT ([1]; CARM1 140-608 versus WT, mean of three replicates (log2)): -0.8789
KO/WT ([1]; KO versus WT, mean of three replicates (log2)): -0.5356
Fold change KO/WT [2, 16]: -0.5356

RPPTPGPDTSVSGPrLTLALAPGPPPPPSR
CARM1 140-608/WT [1, 13]: -1.4
KO/WT [1, 14]: -1.877
Fold change KO/WT [2, 15]: -1.877

SAPFFIPTIPGLVPrYAAPEQNNDPQQSK
CARM1 140-608/WT [1, 11]: -3.554
KO/WT [1, 12]: -5.228
Fold change KO/WT [2, 17]: -5.228

SAPWNSFLPPPPPMPGPrLGPGKPGLK
CARM1 140-608/WT [1, 18]: -1.2
KO/WT [1, 19]: -1.936
Fold change KO/WT [2, 10]: -1.936

SAPrLNTTNAWGAAPPSLGSQPLYR
CARM1 140-608/WT [1, 20]: -0.6132
KO/WT [1, 20]: -1.593
Fold change KO/WT [2, 21]: -1.593

SGFAATSQPGPrLPFIQHSQNPR
CARM1 140-608/WT [1, 3]: -0.196
KO/WT [1, 4]: -1.374
Fold change KO/WT [2, 21]: -1.049

SGFAATSQPGPrLPFIQHSQNPrFYHK
CARM1 140-608/WT [1, 3]: -0.6332
KO/WT [1, 4]: -3.722
Fold change KO/WT [2, 21]: -3.247

SGIILrSPrPDFrPrEPFLSrDPFHSLK
CARM1 140-608/WT [1, 18]: -0.96
KO/WT [1, 19]: -2.553
Fold change KO/WT [2, 16]: -2.553

SGSGNFGGGrGGGFGGNDNFGrGGNFSGrGGFGGSR
CARM1 140-608/WT [1, 3]: 0.1031
KO/WT [1, 4]: 0.7867
Fold change KO/WT [2, 21]: 0.2137

SGSNWGrGSNMNSGPPR
CARM1 140-608/WT [1, 11]: 0.2533
KO/WT [1, 12]: 0.9633
Fold change KO/WT [2, 17]: 0.3426

SHGYKPHFVPNFNGPNAIrQFQPNQINENWK
CARM1 140-608/WT [1, 20]: -1.237
KO/WT [1, 20]: -2.033
Fold change KO/WT [2, 21]: -2.033

SHLSTAGGLAVPSLPTAGPYYSPYALYGQrLASASALGYQ
CARM1 140-608/WT [1, 11]: -2.31
KO/WT [1, 12]: -2.998
Fold change KO/WT [2, 17]: -2.553

SIVPTMHYQDSLPrLPIPK
CARM1 140-608/WT [1, 20]: -1.626
KO/WT [1, 20]: -2.513
Fold change KO/WT [2, 21]: -2.513

SKPQLArYLGGSMDLSTFDFR
CARM1 140-608/WT [1, 13]: -0.3331
KO/WT [1, 14]: -0.5289
Fold change KO/WT [2, 15]: -0.3057

SLCASTLTVSSGSSrGSLASSrGSLASSR
CARM1 140-608/WT [1, 11]: -0.3572
KO/WT [1, 12]: -0.04724
Fold change KO/WT [2, 17]: -0.6221
